Key:
[1] = test system: isolated rat liver mitochondria; assay: Uncoupling potential in isolated mitochondria (free mitochondrial uncoupling, oxygraph respiration); format: biochemical; conditions: fixed concentrations, vs DMSO control, FIGS. 1, 2, 4-6
Experimental: The potency of mitochondrial uncoupling without prodrug metabolism may be tested as follows:
Isolated rat liver mitochondria are prepared according to Hansson et al (Hansson et al (Brain Res. 2003 Jan. 17; 960(1-2):99-111.). Respiration is measured at a constant temperature of 37° C. in a high-resolution oxygraph (Oxygraph-2k Oroboros Instruments, Innsbruck, Austria) in 2 ml glass chambers with stirrer speed 750 rpm. Data is recorded with DatLab software (Oroboros Instruments, Innsbruck, Austria) with sampling rate set to 2 s at an oxygen concentration in the range of 210-50 μM O2. If necessary, reoxygenation is performed by partially raising the chamber stopper for a brief air equilibration. Instrumental background oxygen flux is measured in a separate set of experiments and automatically corrected for in the ensuing experiments according to the manufacturer's instructions. To measure respiration of isolated mitochondria, samples are suspended in a mitochondrial respiration medium (MiR05) containing sucrose 110 mM, HEPES 20 mM, taurine 20 mM, K-lactobionate 60 mM, MgCl2 3 mM, KH2PO4 10 mM, EGTA 0.5 mM, BSA 1 g/l, pH 7.1. After reaching stabilized respiration in the presence of substrates (malate (5 mM), glutamate (5 mM), pyruvate (5 mM) and succinate (10 mM)), state 3 respiration is induced by supplementation with ADP (1 mM) followed by addition of oligomycin (1 μg/ml, ATP-synthase inhibitor) causing state 4O. State 4O is a respiratory state dependent on the back-flux of protons across the mitochondrial membrane due to inhibition of the ATP-synthase and in the presence of saturating substrate concentrations and ADP. Drug candidates and their respective payloads of known protonophores are given at fixed concentrations to induce uncoupled respiration. Rotenone (2 μM, complex I [CI] inhibitor), antimycin-A (1 μg/ml, complex III [CIII] inhibitor) and sodium azide (10 mM) are then added to inhibit the ETS providing the residual, non-mitochondrial oxygen consumption which all respiratory values are corrected for.

[2] = test system: HepG2 cells (hepatic) vs platelets (extra-hepatic); assay: In vitro uncoupling in HepG2 cells (hepatic) vs platelets (extra-hepatic); format: cell-based; conditions: high maximal uncoupling at low concentrations in HepG2 cells; FIGS. 7-12
Experimental: (§1) For respiration measurements in HepG2 cells and platelets, cells are suspended in a mitochondrial respiration medium MiR05 at 37° C. in a high-resolution oxygraph (Oxygraph-2k Oroboros Instruments, Innsbruck, Austria). […] To evaluate the contribution of respiration independent of ADP phosphorylation, oligomycin (1 μg/ml, ATP-synthase inhibitor) is sequentially added inducing LEAK respiration state (a respiratory state where oxygen consumption is dependent on the back-flux of protons across the mitochondrial membrane). Drug candidates and known protonophores are carefully titrated to induce maximal uncoupled respiration/maximal rate of the ETS (electron transport system) at endogenous substrate supply and continued until a decrease or at least no further increase of uncoupled respiration is observed. Rotenone (2 μM, complex I [CI] inhibitor) and antimycin-A (1 μg/ml, complex III [CIII] inhibitor) are then added to inhibit the ETS, thus providing the residual, non-mitochondrial oxygen consumption, which all values were corrected for.
(§2) The potency of mitochondrial uncoupling with prodrug metabolism be tested as follows: • a) HepG2 cells (to simulate uncoupling with liver cell metabolism) • b) Platelets (to simulate uncoupling in blood)
It is advantageous to have an increased level of uncoupling in hepatic tissue as compared to extra-hepatic tissue. To test for this, compounds were tested in an in vitro uncoupling assay (see Assays for evaluating mitochondrial uncoupling in intact liver cells and platelets in general methods) in HepG2 cells (hepatic) vs platelets (extra-hepatic).

[3] = Relative liver exposure vs extra-hepatic organs: salicylanilide levels after oral dosing; format: in vivo; conditions: CD-1 mice
Experimental: For example, mice or rats are dosed with 1 or 3 mg/kg of the compound of the invention i.v. or 1, 5 or 10 mg/kg of the compound of the invention p.o. Blood samples are taken at 5 min, 15 min, 1 h, 4 h and 24 h intervals, and the concentration of the compound of the invention in the sample is determined via LCMS-MS. The time-course of plasma or whole blood concentrations can then be used to derive key parameters such as the area under the plasma or blood concentration-time curve (AUC—which is directly proportional to the total amount of unchanged drug that reaches the systemic circulation), the maximum (peak) plasma or blood drug concentration, the time at which maximum plasma or blood drug concentration occurs (peak time), additional factors which are used in the accurate determination of bioavailability include: the compound's terminal half-life, total body clearance, steady-state volume of distribution and F %.
As it is advantageous to have an increased ratio of liver uncoupling versus extra hepatic uncoupling, 3 mg/kg salicylanilide or 10 mg/kg compound 14 or 10 mg/kg compound 23 (which releases salicylanilide) were dosed orally to CD-1 mice and levels of salicylanilide were measured in blood, muscle and liver samples before and after dosing (see general methods). The ratio of liver vs extra-hepatic salicylanilide was then assessed, with a high ratio desirable, as this is anticipated to lead to reduced off-target uncoupling and toxicity.

[4] = Hsaio et al., 2005; cited from earlier work
[5] = Caco-2 permeability assay; format: in vitro ADME; conditions: human
Experimental: (§3) The permeability coefficient (Papp) is calculated from the following equation:
(§4) Where dQ/dt is the amount of compound in basal (A-B) or apical (B-A) compartment as a function of time (nmol/s). C0 is the initial concentration in the donor (apical or basal) compartment (Mean of T=0) (nmol/mL) and A is the area of the transwell (cm^2).
(§5) The efflux ratio is then calculated as: […]
(§6) Cell permeability may be tested as follows: The test compound is dissolved to 10 mM in DMSO and then diluted further in buffer to produce a final 10 μM dosing concentration. The fluorescence marker lucifer yellow is also included to monitor membrane integrity. Test compound is then applied to the apical (A) surface of Caco-2 cell monolayers and compound permeation into the basolateral (B) compartment is measured. This is performed in the reverse direction (basolateral to apical) to investigate active transport (efflux). LC-MS/MS is used to quantify levels of both the test and standard control compounds (such as Propanolol and Acebutolol).

Caco-2 cell monolayers = assay: Caco-2 permeability assay; format: in vitro ADME
Experimental: as §3, §4, §5, §6

HepG2 cells = assay: Mitochondrial uncoupling assay in intact HepG2 liver cells; format: cell-based; conditions: FIG. 3
Experimental: as §1, §2

| Compound | uncoupling in isolated mitochondria (without prodrug metabolism) [1] | selectivity of uncoupling, HepG2 cells vs platelets [2] | also measured |
| --- | --- | --- | --- |
| COP(=O)(N[C@@H](C)C(=O)OC(C)C)OCOc1ccc([N+](=O)[O-])cc1[N+](=O)[O-] (stereo partly shown) [Compound 1] | reduced, little or no uncoupling | – | – |
| CC(C)OC(=O)[C@H](C)NP(=O)(N[C@@H](C)C(=O)OC(C)C)OCOc1ccc([N+](=O)[O-])cc1[N+](=O)[O-] [Compound 2] | reduced, little or no uncoupling | – | – |
| CC(C)OC(=O)[C@H](C)NP(=O)(N[C@@H](C)C(=O)OC(C)C)OCOc1ccc([N+](=O)[O-])cc1 [Compound 4] | reduced, little or no uncoupling | – | – |
| CC(C)OC(=O)[C@H](C)NP(=O)(N[C@@H](C)C(=O)OC(C)C)OCOc1ccc(Cl)cc1C(=O)Nc1ccc([N+](=O)[O-])cc1Cl [Compound 6] | reduced, little or no uncoupling | selective uncoupling in HepG2 cells as compared to platelets | – |
| C[C@H](NP(=O)(N[C@@H](C)C(=O)OCC(C)(C)C)OCOc1ccc([N+](=O)[O-])cc1)C(=O)OCC(C)(C)C [Compound 9] | reduced, little or no uncoupling | selective uncoupling in HepG2 cells as compared to platelets | – |
| CC(C)OC(=O)[C@H](Cc1ccccc1)NP(=O)(N[C@@H](Cc1ccccc1)C(=O)OC(C)C)OCOc1ccc([N+](=O)[O-])cc1[N+](=O)[O-] [Compound 11] | reduced, little or no uncoupling | selective uncoupling in HepG2 cells as compared to platelets | – |
| CC(C)OC(=O)[C@H](Cc1ccccc1)NP(=O)(N[C@@H](Cc1ccccc1)C(=O)OC(C)C)OCOc1ccccc1C(=O)Nc1ccccc1 [Compound 14] | reduced, little or no uncoupling | selective uncoupling in HepG2 cells as compared to platelets | ratio of liver to extra-hepatic exposure (in words) [3]: desirable ratios of liver to extra-hepatic exposure; Salicylanilide in blood after 1 h ([3]; 3 mg/kg salicylanilide or 10 mg/kg compound 14 or 23): BQL |
| COP(=O)(N[C@@H](C)C(=O)OC(C)C)OCOc1ccc(Cl)cc1C(=O)Nc1ccc([N+](=O)[O-])cc1Cl (stereo partly shown) [Compound 18] | reduced, little or no uncoupling | selective uncoupling in HepG2 cells as compared to platelets | – |
| C[C@H](NP(=O)(N[C@@H](C)C(=O)OCC(C)(C)C)OCOc1ccccc1C(=O)Nc1ccccc1)C(=O)OCC(C)(C)C [Compound 23] | reduced, little or no uncoupling | selective uncoupling in HepG2 cells as compared to platelets | ratio of liver to extra-hepatic exposure (in words) [3]: desirable ratios of liver to extra-hepatic exposure |
| O=[N+]([O-])c1ccc(O)c([N+](=O)[O-])c1 [DNP, 2,4 dinitrophenol] | potent uncoupling | – | acute administration that can be lethal [4]: 20-50 mg/kg body weight; efflux ratio at 10 µM [5]: 1.1; Papp A→B at 10 μM ([5]; apical to basolateral): 24 ×10⁻⁶ cm/s; Papp B→A at 10 μM ([5]; basolateral to apical): 27 ×10⁻⁶ cm/s |
| O=C(Nc1ccccc1)c1ccccc1O [Salicylanilide, 2-Hydroxy-N-phenylbenzamide] | – | – | Caco-2 efflux ratio compared to DNP (in words) (Caco-2 cell monolayers): reduced efflux ratio; Caco-2 permeability compared to DNP (in words) (Caco-2 cell monolayers): increased permeability; efflux ratio [5]: 0.8; Papp A→B ([5]; apical to basolateral): 39.5 ×10⁻⁶ cm/s; Papp B→A ([5]; basolateral to apical): 33 ×10⁻⁶ cm/s; ratio of liver to extra-hepatic exposure (in words) [3]: desirable ratios of liver to extra-hepatic exposure; maximal uncoupling effect compared to DNP (HepG2 cells): lesser maximal uncoupling effect; uncoupling potency compared to DNP (HepG2 cells): more potent compared to DNP |

From patent US20190276481A1, “Liver Prodrugs of Mitochondrial Proton Ionophores” (NEUROVIVE PHARMACEUTICAL AB, priority 2016, published 2019)
